ChEMBL document CHEMBL5608177, “Antitumor activity and transcriptome sequencing (RNA-seq) analyses of hepatocellular carcinoma cells in response to exposure triterpene-nucleoside conjugates” (Eur J Med Chem, 2024)
Values after ≈ are worked out from the molar mass of the structure shown. Active and inactive are the calls of the source. The rule behind the calls is not given here.

Assays:
SMMC-7721 [1] = test: Induction of apoptosis in human SMMC-7721 cells assessed as late apoptotic cells at 15 uM incubated for 24 hrs in presence of Nec1 by Annexin V-FITC and propidium iodide staining based flow cytometric analysis (reference value: 0.09 %); assay type: functional
[2] = Toxicity in Zebrafish embryo assessed as reduction in survival rate at >= 30 uM incubated for 48 hrs by microscopic analysis relative to control; design: species or system Danio rerio; conditions: zebrafish embryos
SMMC-7721 [3] = test: Induction of apoptosis in human SMMC-7721 cells assessed as necrotic cells at 15 uM incubated for 24 hrs in presence of 3-MA by Annexin V-FITC and propidium iodide staining based flow cytometric analysis (reference value: 0.65 %); assay type: functional
SMMC-7721 [4] = test: Induction of autophagy in human SMMC-7721 cells assessed as formation of autolysosomes at 10 uM incubated for 24 hrs by TEM analysis; assay type: functional, cell-based
SMMC-7721 [5] = test: Antitumor activity against human GFP-stained SMMC-7721 cells inoculated in zebrafish larvae assessed as reduction in tumor growth at < 10 uM incubated for 48 hrs by confocal laser scanning microscopy; assay type: functional, cell-based
SMMC-7721 [6] = test: Induction of apoptosis in human SMMC-7721 cells assessed as necrotic cells at 15 uM incubated for 24 hrs in presence of zVAD by Annexin V-FITC and propidium iodide staining based flow cytometric analysis (reference value: 0.65 %); assay type: functional
SMMC-7721 [7] = test: Induction of apoptosis in human SMMC-7721 cells assessed as viable cells at 15 uM incubated for 24 hrs in presence of zVAD by Annexin V-FITC and propidium iodide staining based flow cytometric analysis (reference value: 99.2 %); assay type: functional; conditions: read-out: Activity
SMMC-7721 [8] = test: Induction of apoptosis in human SMMC-7721 cells assessed as necrotic cells at 15 uM incubated for 24 hrs by Annexin V-FITC and propidium iodide staining based flow cytometric analysis (reference value: 0.65 %); assay type: functional
SMMC-7721 [9] = test: Induction of apoptosis in human SMMC-7721 cells assessed as late apoptotic cells at 15 uM incubated for 24 hrs in presence of 3-MA by Annexin V-FITC and propidium iodide staining based flow cytometric analysis (reference value: 0.09 %); assay type: functional
SMMC-7721 [10] = test: Induction of apoptosis in human SMMC-7721 cells at 10 uM incubated for 24 hrs by Annexin V-FITC and propidium iodide staining based flow cytometric analysis relative to control; assay type: functional
SMMC-7721 [11] = test: Antitumor activity against human GFP-stained SMMC-7721 cells inoculated in zebrafish larvae assessed as reduction in tumor growth by measuring survival rate at 10 uM incubated for 48 hrs by confocal laser scanning microscopy; assay type: functional
SMMC-7721 [12] = test: Induction of autophagy in human SMMC-7721 cells assessed as cell structure destruction at 10 uM incubated for 24 hrs by TEM analysis; assay type: functional, cell-based
SMMC-7721 [13] = test: Induction of apoptosis in human SMMC-7721 cells assessed as viable cells at 20 uM incubated for 24 hrs by Annexin V-FITC and propidium iodide staining based flow cytometric analysis (reference value: 99 %); assay type: functional; conditions: read-out: Activity
SMMC-7721 [14] = test: Induction of apoptosis in human SMMC-7721 cells assessed as viable cells at 15 uM incubated for 24 hrs by Annexin V-FITC and propidium iodide staining based flow cytometric analysis (reference value: 99.2 %); assay type: functional; conditions: read-out: Activity
[15] = Toxicity in BALB/c mouse xenografted with human SMMC-7721 cells assessed as change in body weight at 10 mg/kg,ip administrated daily for 3 weeks; assay type: organism-based; conditions: in vivo, 504 h
SMMC-7721 [16] = test: Induction of apoptosis in human SMMC-7721 cells assessed as upregulation of Bax/Bcl-2 ratio at 20 uM incubated for 24 hrs by Western blotting analysis; assay type: functional, cell-based
SMMC-7721 [17] = test: Antitumor activity against human SMMC-7721 cells xenografted in BALB/c mouse assessed as reduction in tumor weight at 10 mg/kg,ip administrated for 3 weeks; assay type: functional, organism-based
SMMC-7721 [18] = test: Antitumor activity against human SMMC-7721 cells xenografted in BALB/c mouse assessed as inhibition of tumor growth at 10 mg/kg,ip administrated daily for 3 weeks relative to control; assay type: functional; design: scale not given: the % may be the effect or the level left
SMMC-7721 [19] = test: Induction of apoptosis in human SMMC-7721 cells assessed as upregulation of LC3 expression incubated for 24 hrs by Western blotting analysis; assay type: functional, cell-based
[20] = Inhibition of PI3K/AKT/mTOR signalling pathway in human SMMC-7721 cells at 10 uM incubated for 24 hrs by transcriptome analysis; assay type: cell-based
SMMC-7721 [21] = test: Antitumor activity against human SMMC-7721 cells xenografted in BALB/c mouse assessed as reduction in tumor weight at 10 mg/kg,ip administrated daily for 3 weeks (reference value: 0.573 +/- 0.137 g); assay type: functional
SMMC-7721 [22] = test: Induction of apoptosis in human SMMC-7721 cells assessed as upregulation of Bax/Bcl-2 ratio incubated for 24 hrs by Western blotting analysis; assay type: functional, cell-based
SMMC-7721 [23] = test: Antitumor activity against human SMMC-7721 cells xenografted in BALB/c mouse assessed as reduction in tumor growth at 10 mg/kg,ip administrated for 3 weeks; assay type: functional, organism-based
SMMC-7721 [24] = test: Antitumor activity against human GFP-stained SMMC-7721 cells inoculated in zebrafish larvae assessed as reduction in tumor growth at 5 to 20 uM incubated for 48 hrs by confocal laser scanning microscopy; assay type: functional, cell-based; conditions: dose 5-20 µM
SMMC-7721 [25] = test: Induction of apoptosis in human SMMC-7721 cells assessed as upregulation of Bax expression incubated for 24 hrs by Western blotting analysis; assay type: functional, cell-based
SMMC-7721 [26] = test: Induction of apoptosis in human SMMC-7721 cells assessed as downregulation of BCL-2 expression at 15 uM incubated for 24 hrs by Western blotting analysis; assay type: functional, cell-based
[27] = Aqueous solubility of the compound in […] by HPLC analysis; assay type: physicochemical

SMILES	Activity (SMMC-7721 [1])	Activity (SMMC-7721 [3])	Activity (SMMC-7721 [4])	Activity (SMMC-7721 [6])	viability at 15 µM (SMMC-7721 [7])	Activity (SMMC-7721 [8])	Activity (SMMC-7721 [9])	Activity (SMMC-7721 [10])	Activity (SMMC-7721 [12])	viability at 20 µM (SMMC-7721 [13])	viability at 15 µM (SMMC-7721 [14])	further results
C=C(C)[C@@H]1CC[C@]2(C(=O)OC)CC[C@]3(C)[C@H](CC[C@@H]4[C@@]5(C)C[C@@H](Cc6cn([C@]7(CO)O[C@@H](n8ccc(O)nc8=O)[C@@H](F)[C@@H]7O)nn6)C(=O)C(C)(C)[C@@H]5CC[C@]43C)[C@@H]12	9.13%	11.2%	Active	9.3%	82%	15.7%	2.54%	0.42%	Active	62.3%	72.8%	survival at 48 h, 30 µM [2]: < 25%; Activity (SMMC-7721 [5]): inactive; Activity (SMMC-7721 [11]): 85%
C=C(C)[C@@H]1CC[C@]2(C(=O)OC)CC[C@]3(C)[C@H](CC[C@@H]4[C@@]5(C)C[C@@H](Cc6cn([C@H]7C[C@H](n8cc(C)c(O)nc8=O)O[C@@H]7CO)nn6)C(=O)C(C)(C)[C@@H]5CC[C@]43C)[C@@H]12	10.8%	1.77%	Active	9.33%	87.9%	16.6%	6.4%	0.54%	Active	58%	68.2%	Activity [15]: Non-Toxic; Activity (SMMC-7721 [16]): Active; Activity (SMMC-7721 [17]): Active; Activity (SMMC-7721 [18]): 52%; Activity (SMMC-7721 [19]): Dose-Dependent Effect; inhibition [20]: Active; Activity (SMMC-7721 [21]): 0.275 g; Activity (SMMC-7721 [22]): Dose-Dependent Effect; Activity (SMMC-7721 [23]): Active; Activity (SMMC-7721 [24]): Active; Activity (SMMC-7721 [25]): Dose-Dependent Effect; Activity (SMMC-7721 [26]): Active; solubility [27]: 2.56 µM (≈ 1.98 µg/mL)
